Laboratory results reported in article PMC3493464, “Functional Analysis of Metabolic Channeling and Regulation in Lignin Biosynthesis: A Computational Approach” (PLoS Computational Biology, 2012).

Columns and labels:
[1] = molecular target: T1, CCoAOMT (caffeoyl CoA O-methyltransferase) (Medicago sativa, UniProt Q40313); assay: HPLC assay of feruloyl CoA formation; assay type: biochemical; details: 20, 30 or 40 µM caffeoyl CoA; 200 µM S-adenosyl methionine, 600 µM MgCl2, 2 mM DTT, pH 7.5, 30 °C
T1 construct: gene CCOMT; alfalfa cDNA in pET15b, His-tagged, expressed in E. coli Rosetta, Ni-NTA purified; tag removal not mentioned
T1 sequence (Q40313 whole entry): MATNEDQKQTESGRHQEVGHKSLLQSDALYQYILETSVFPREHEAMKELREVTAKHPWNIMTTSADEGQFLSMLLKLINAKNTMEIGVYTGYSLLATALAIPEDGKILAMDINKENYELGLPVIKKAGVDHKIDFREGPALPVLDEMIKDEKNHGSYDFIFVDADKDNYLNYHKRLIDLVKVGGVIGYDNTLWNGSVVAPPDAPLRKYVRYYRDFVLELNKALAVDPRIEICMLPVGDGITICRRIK

[2] = molecular target: T1, CCoAOMT (caffeoyl CoA O-methyltransferase); assay: HPLC assay of feruloyl CoA formation; assay type: biochemical; details: putative activator; 2 µM caffeyl aldehyde, 20 µM caffeoyl CoA, 200 µM S-adenosyl methionine, 600 µM MgCl2, 2 mM DTT, 4% DMSO, pH 7.5, 30 °C

Compound	HPLC assay of feruloyl CoA formation [1]	% increase in activity at 2 μM [2] [%]
CC(C)(COP(=O)(O)OP(=O)(O)OC[C@H]1O[C@@H](n2cnc3c(N)ncnc32)[C@H](O)[C@@H]1OP(=O)(O)O)[C@@H](O)C(=O)NCCC(=O)NCCSC(=O)/C=C/c1ccc(O)c(O)c1 [caffeoyl CoA]	assayed the purified recombinant enzyme with caffeoyl CoA as substrate	
O=C/C=C/c1ccc(O)c(O)c1 [caffeyl aldehyde]		16
